Values quoted from earlier work as cited in patent US20260048030A1, “REPARIXIN LIQUID SUSPENSIONS” (Dompe' Farmaceutici SPA, priority 2022, published 2026).

Tested on: hospitalized patients with severe COVID-19 pneumonia
Conditions: phase 2

CC(C)Cc1ccc([C@@H](C)C(=O)NS(C)(=O)=O)cc1 [Reparixin, R-(−)-2-(4-isobutylphenyl)propionyl methansulfonamide]
Clinical outcomes compared with the standard of care: improved clinical outcomes
